Source: patent US10517889B2, “Modulators of SMAD7 expression” (Ionis Pharmaceuticals, Inc., priority 2017, dated 2019)
pIC50: −log10 of the molar value. Strand notation (5' to 3'): a small letter for the sugar, then the base; units joined by * are phosphorothioate-linked, units joined directly phosphodiester-linked; [ ] holds rarer units or linkages, { } end groups; capitals alone tell only the bases. k = constrained ethyl (cEt); [5mC] = 5-methylcytosine; d = 2'-deoxy (DNA)

Columns and labels:
human SMAD7 mRNA [1] = experiment: Antisense inhibition of human SMAD7 mRNA expression in Hep3B cells by 3-10-3 cEt gapmers, 10,000 nM, electroporation (Example 2); assay type: cell-based; conditions: approximately 24 hours
How it was run: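 qRT-PCR (RTS5062) of SMAD7 mRNA, normalised to RIBOGREEN total RNA, gave percent inhibition relative to untreated controls. Hep3B cells at 20,000 per well received 10,000 nM oligonucleotide by electroporation, with ~24 h treatment.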

human SMAD7 mRNA [2] = experiment: Dose-dependent inhibition of human SMAD7 mRNA expression in Hep3B cells (Example 3, Study 1 and 2); assay type: cell-based; conditions: electroporation; for % inhibition of SMAD7 mRNA expression: approximately 16 hours; for pIC50: Study 2 (740-20000 nM)
Method: The antisense oligonucleotides were tested in a series of experiments that had similar culture conditions as described below.
(§1) Cells were plated at a density of 20,000 cells per well and transfected using electroporation with 0.31 μM, 1.25 μM, 5.00 μM, or 20.00 μM concentrations of antisense oligonucleotide, as specified in the Tables below. ION 483663 was included in the assays for comparison. After a treatment period of approximately 16 hours, RNA was isolated from the cells and SMAD7 mRNA levels were measured by quantitative real-time PCR. Primer probe set RTS5062 was used to measure human SMAD7 mRNA levels. SMAD7 mRNA levels were adjusted according to total RNA content, as measured by RIBOGREEN®. Results are presented as percent inhibition of SMAD7 mRNA expression, relative to untreated control cells.
The half maximal inhibitory concentration (IC50) of each oligonucleotide is also presented.
as §1, with “0.74” for “0.31”, “2.22” for “1.25”, “6.67” for “5.00”, “below.” for “below. ION 483663 was included in the assays for comparison.”

[3] = Hep3B cells, electroporation, 10,000 nM antisense oligonucleotide, RTS5062, relative to untreated control cells
[4] = 740 nM, Study 2, relative to untreated control cells
[5] = Hep3B cells, electroporation with 10,000 nM antisense oligonucleotide, SMAD7 mRNA by RT-PCR (RTS5062), relative to untreated control cells
[6] = Hep3B cells, electroporation with 10,000 nM antisense oligonucleotide, primer probe set RTS5062, relative to untreated control cells

Substance | % inhibition of SMAD7 mRNA expression (human SMAD7 mRNA [1]; [3]) | % inhibition of SMAD7 mRNA expression (human SMAD7 mRNA [2]; [4]) | % inhibition of SMAD7 mRNA expression (human SMAD7 mRNA [2]; 2220 nM, Study 2) | % inhibition of SMAD7 mRNA expression (human SMAD7 mRNA [2]; 6670.0 nM, Study 2) | % inhibition of SMAD7 mRNA expression (human SMAD7 mRNA [2]; 20000.0 nM, Study 2) | pIC50 (human SMAD7 mRNA [2]) | % Inhibition (human SMAD7 mRNA [1]; [5]) | % Inhibition (human SMAD7 mRNA [1]; SMAD7 mRNA, Hep3B cells, 10,000 nM antisense oligonucleotide, electroporation, primer probe set RTS5062, relative to untreated control cells) | % inhibition of SMAD7 mRNA expression (human SMAD7 mRNA [1]; [6]) | % Inhibition (human SMAD7 mRNA [1]; Hep3B cells, 10,000 nM antisense oligonucleotide, electroporation, RT-PCR primer probe set RTS5062, relative to untreated control cells) | % Inhibition (human SMAD7 mRNA [1]; [6])
799759 (antisense kA*k[5mC]*k[5mC]*dA*dT*dA*dT*d[5mC]*dA*d[5mC]*dT*d[5mC]*d[5mC]*kT*kT*k[5mC]) [compound 799759] | 66% | 22% | 44% | 45% | 66% | 5.70 | – | – | – | – | –
799980 (k[5mC]*k[5mC]*kA*dA*d[5mC]*dG*dG*dT*dT*dG*d[5mC]*d[5mC]*dT*k[5mC]*kA*kT; antisense) [compound 799980] | – | 22% | 22% | 51% | 61% | 4.89 | 78% | – | – | – | –
830099 (kG*k[5mC]*k[5mC]*dT*dT*dT*dG*dG*dA*dA*dT*dT*dA*kG*kT*kA; antisense) [compound 830099] | – | 42% | 56% | 70% | 92% | 5.00 | 79% | – | – | – | –
772732 (kG*kA*kT*dA*dT*dT*dT*dA*dG*d[5mC]*dT*dG*dT*k[5mC]*kA*kG; antisense) [compound 772732] | – | 27% | 60% | 63% | 68% | 5.52 | – | 58% | – | – | –
798686 (antisense kG*kA*kG*dG*dA*dG*dG*d[5mC]*dG*dA*dG*dG*dA*kG*kA*kA) [compound 798686] | – | 0% | 0% | 2% | 33% | 5.30 | – | – | 59% | – | –
799858 (kG*kT*kA*dA*dT*dT*dT*dA*dG*d[5mC]*dA*dA*dT*kT*k[5mC]*k[5mC]; antisense) [compound 799858] | – | 18% | 43% | 48% | 71% | 5.70 | – | – | – | 64% | –
799540 (kA*kG*k[5mC]*dT*dG*dA*dA*dG*d[5mC]*d[5mC]*d[5mC]*d[5mC]*d[5mC]*k[5mC]*kA*kA; antisense) [compound 799540] | 76% | 41% | 60% | 63% | 73% | 5.30 | – | – | – | – | –
798733 (antisense k[5mC]*kG*k[5mC]*dG*dG*d[5mC]*dT*dG*dG*d[5mC]*dG*dG*dG*kT*kG*kG) [compound 798733] | – | 58% | 84% | 88% | 95% | 5.40 | 72% | – | – | – | –
799369 (antisense kA*k[5mC]*kT*d[5mC]*dA*d[5mC]*dT*dA*dA*dG*dT*d[5mC]*dT*k[5mC]*k[5mC]*kG) [compound 799369] | – | 1% | 10% | 46% | 74% | 5.22 | 50% | – | – | – | –
798954 (antisense kA*kT*kA*dA*dG*d[5mC]*dT*dA*dT*dT*dT*d[5mC]*dT*k[5mC]*kA*kA) [compound 798954] | – | 4% | 27% | 49% | 70% | < 4.70 | – | – | – | – | 54%
